The values below come from ChEMBL document CHEMBL1130583, “Benzylamine-based selective and orally bioavailable inhibitors of thrombin” (Bioorg Med Chem Lett, 1998).

One data set deals with Prothrombin (Homo sapiens, UniProt P00734). Description: Binding affinity towards human thrombin.
A further data set addresses T1, Serine protease 1 (Bos taurus, UniProt P00760).
T1 sequence (P00760 whole entry): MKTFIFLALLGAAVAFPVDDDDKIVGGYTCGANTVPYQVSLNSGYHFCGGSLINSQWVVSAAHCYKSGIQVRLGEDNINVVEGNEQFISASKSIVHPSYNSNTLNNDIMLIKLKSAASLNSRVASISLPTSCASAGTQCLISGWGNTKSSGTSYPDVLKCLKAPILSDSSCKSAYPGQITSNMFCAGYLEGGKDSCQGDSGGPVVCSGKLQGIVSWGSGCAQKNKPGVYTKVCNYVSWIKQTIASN
Description: Binding affinity towards bovine trypsin was evaluated in vitro.

Data set [1] in a line: Apparent permeability coefficient (Papp) was determined in human Caco-2 cell monolayer (n = 3). Type of data set: ADME, cell-based. A general note: Passage across Caco-2 layers is used to estimate intestinal permeability.
The next data set deals with Rattus norvegicus. Nature of the data set: In vivo antithrombotic activity was tested in rat thromboplastin-induced model of venous thrombosis at an intravenous bolus of 5 mg/Kg. It counts as functional.
Data set [2] in a line: Maximum concentration in rat plasma at 30 mg/Kg upon oral administration. Type of data set: ADME, organism-based. Further details: dose 30 mg/Kg, route oral.
Data set [3] in a line: Time taken by the compound to achieve maximum concentration in rat plasma at 30 mg/Kg upon oral administration. Type of data set: ADME, organism-based.

The Ki is a measure of affinity in units of concentration, obtained from inhibition or displacement. Low readings indicate tighter binding, high ones weaker binding. Broadly, the Papp is the rate of passage across a membrane or cell layer, normalised by area and donor concentration. By inhibition in vivo is commonly meant how much of the control response was suppressed. Lower therefore signals little suppression. As a reminder, the Cmax is the highest concentration seen after dosing. In general, Tmax refers to the time at which the peak concentration occurs.

On to `CCCc1ccc(S(=O)(=O)N[C@@H](Cc2ccc(CN)cc2)C(=O)N(C)C2CCCC2)cc1`, for which the Ki was determined as 9.6 nM on Prothrombin and 9040 nM at Serine protease 1.
In the case of `CN(C(=O)[C@H](Cc1ccc(CN)cc1)NS(=O)(=O)c1ccc(-c2ccccc2)cc1)C1CCCC1`, the Ki at Prothrombin amounted to 60.5 nM.
On the same count and under the same terms, next, `CN(C(=O)[C@H](Cc1ccc(CN)cc1)NS(=O)(=O)c1ccc(-c2ccccn2)s1)C1CCCC1`: 107 nM.
Turning to `CN(C(=O)[C@H](Cc1ccc(C(=N)NN)cc1)NS(=O)(=O)c1ccc2ccccc2c1)C1CCCC1`, the Papp in data set [1] was 1.7 ×10⁻⁶ cm/s.
As for `CN(C(=O)[C@H](Cc1ccc(CN)cc1)NS(=O)(=O)c1ccc2c(c1)CCCC2)C1CCCC1`, the Ki at Prothrombin stood at 10.1 nM; at Serine protease 1, 9800 nM. In the data set on Rattus norvegicus, the inhibition in vivo at 5 mg/kg is 16.4%.
Regarding `CN(C)c1cccc2c(S(=O)(=O)N[C@@H](Cc3ccc(CN)cc3)C(=O)N(C)C3CCCC3)cccc12`, in data set [2], the Cmax came to 3.3 µM. Further, the figures for the Ki on Prothrombin and at Serine protease 1 were 10.9 nM and 17100 nM, respectively. In the data set with Rattus norvegicus, this compound returned an inhibition in vivo at 5 mg/kg of 35.5%. In addition, the Tmax in data set [3] was 1.6 h.
Regarding `CN(C(=O)[C@H](Cc1ccc(CN)cc1)NS(=O)(=O)c1ccc2cc3ccccc3cc2c1)C1CCCC1`, the inhibitory constant (Ki) stood at 5.7 nM at Prothrombin and 3300 nM at Serine protease 1. Moreover, testing at 5 mg/kg in the data set on Rattus norvegicus gave an inhibition in vivo of 45.4%.
Compound `CN(C(=O)[C@H](Cc1ccc(CN)cc1)NS(=O)(=O)c1ccc2c(c1)CCCCC2)C1CCCC1` had a peak concentration (Cmax) in data set [2] of 3.5 µM. Moreover, the figures for the inhibitory constant (Ki) on Prothrombin and at Serine protease 1 were 3.3 nM and 6300 nM, respectively. The compound also had an inhibition in vivo at 5 mg/kg in the data set with Rattus norvegicus of 39.4%. Besides, the Tmax in data set [3] is 1.33 h.
With `CN(C(=O)[C@H](Cc1ccc(CN)cc1)NS(=O)(=O)c1ccc(C2CCCCC2)cc1)C1CCCC1`, the inhibition constant Ki on Prothrombin was found to be 20.1 nM; at Serine protease 1, 4800 nM. The compound also came in with an inhibition in vivo at 5 mg/kg in the data set with Rattus norvegicus of 23.8%.
Take `CN(C(=O)[C@H](Cc1ccc(C(=N)N)cc1)NS(=O)(=O)c1ccc2ccccc2c1)C1CCCC1`: the Papp in data set [1] worked out at 0.2 ×10⁻⁶ cm/s.
In data set [2], `COc1ccc2cc(S(=O)(=O)N[C@@H](Cc3ccc(CN)cc3)C(=O)N(C)C3CCCC3)ccc2c1` gave a maximum concentration (Cmax) of 2.8 µM. For the same compound, the Ki on Prothrombin is 6.6 nM; on Serine protease 1 it was 14200 nM. This compound showed an inhibition in vivo at 5 mg/kg with Rattus norvegicus of 44.1%. Moreover, in data set [3], the time of peak concentration (Tmax) is 2.33 h. In addition, the Papp in data set [1] turned out to be 10.7 ×10⁻⁶ cm/s.
As for `CN(C(=O)[C@H](Cc1ccc(CN)cc1)NS(=O)(=O)c1ccc2ccccc2c1)C1CCCC1`, the inhibition constant Ki at Prothrombin turned out to be 18.3 nM; on Serine protease 1, 13600 nM. In the data set on Rattus norvegicus, this compound had an inhibition in vivo at 5 mg/kg of 17.6%.
Turning to `NCc1ccc(C[C@H](NS(=O)(=O)c2ccc3ccccc3c2)C(=O)N2CCCCC2)cc1`, the affinity on Prothrombin corresponds to a Ki of 3.1 nM.
